The results in this text go back to patent US20080176923A1, “Proline Derivatives Used as Pharmaceutical Active Ingredients for the Treatment of Tumors” (priority 2003, published 2008).

What is called melting point is the temperature, or range, at which the solid turns liquid. What is called IC50 is the concentration at which inhibition is half-maximal.

Converted amounts (≈) assume the structure as drawn. Read-outs that look alike come from different tables or passages of the source.

The test system of series [1] is Colo205 colon cancer cell line. The series is described as follows: tumor cell proliferation test (EZ4U tetrazolium), Colo205. The class given is cell-based. The following applies: Homo sapiens. Here is the method:
(§1) The compounds of the invention were tested using the pancreas tumor cell lines MIYPaCa2 and BxPC3, the breast cancer cell lines MDA-MB-435 and BT20, as well as the colon cancer cell lines Colo205 and HT29. The cells were placed in culture medium (RPMI-1640 with 10% fetal calf serum and 4 mM glutamine) in 96-well microtiter plates to make 10,000 cells per well. The inventive components to be tested were diluted in microtiter plates according to the well-known procedure and incubated for 4 days under cell culture conditions (37° C., 5% CO2).
(§2) Following incubation, the proliferation was tested using a tetrazolium-based EZ4U kit from Biomedica (Vienna, Austria). The optical density (OD) of each well was determined by means of an ELISA Reader, and the control medium obtained was set to 100% (OD490 nm=0.5 to 1.5). The values in Table 1 are given in %, showing the inhibition of cellular proliferation, the concentration being 400 μg/ml (higher value) and 200 μg/ml (lower value).
(§3) In further tests, substances were dissolved in water, and their effect on the colon adenocarcinoma cell line Colo205 and pancreas adenocarcinoma cell line BxPC3 as targets was tested. The results obtained, in IC50 concentrations in μg/ml, are illustrated in Table 2.
(§4) A proliferation test—as described above—with an initial dilution of 400 μg/ml was carried out, either alone or in combination with 400, 200 or 100 μg of CHP. The cell lines used are illustrated in Table 3. […] Frequently, the proliferation is increased, or the inhibition achieved with specific substances is lower when using combined agents. The effect of CHP alone is shown on the left in the table, below each specified cell line, for the highest concentration of CHP (400 μg/ml).
(§5) Furthermore, (R)-(+)-α,α-diphenyl-2-pyrrolidinemethanol and (S)-(−)-α,α-diphenyl-2-pyrrolidinemethanol were tested. […] The results are given as IC50 (μg/ml).

In series [2] the test system is BxPC3 pancreas tumor cell line. The series can be described thus: tumor cell proliferation test (EZ4U tetrazolium), BxPC3. Type of series: cell-based. The following applies: Homo sapiens. On the procedure:
as §1, §2, §3, §5

For series [3], the system named is T47D breast cancer cell line. The series is described as follows: tumor cell proliferation test, T47D. The class given is cell-based. As to conditions: Homo sapiens. Here is the method:
as §1, §2, §4, §5

The test system of series [4] is MIA-PaCa2 pancreas tumor cell line. The series is described as follows: tumor cell proliferation test (EZ4U tetrazolium), MIA-PaCa2. Type of series: cell-based. The following applies: Homo sapiens; for IC50: MIA PaCa-2. Here is the method:
as §1, §2, §5

The next series concerns Pana -1 pancreas cancer. The series can be described thus: tumor cell proliferation test, Pana -1. Type of series: cell-based. Here is the method:
as §1, §2, §5

Series [5] concerns all 6 cell lines (MIA-PaCa2, Colo205, BxPC3, MDA-MB435, BT20, HT29). The series can be described thus: tumor cell proliferation test, mean value for all 6 cell lines. Type of series: cell-based. The following applies: read-out: inhibition; mean value±SEM for all 6 cell lines. On the procedure:
as §1, §2

For series [6], the system named is MDA-MB435 breast cancer cell line. The series is described as follows: tumor cell proliferation test (EZ4U tetrazolium), MDA-MB435. The class given is cell-based. The following applies: Homo sapiens, MDA-MB-435, 96 h, 4 days, read-out: inhibition of cellular proliferation. On the procedure:
as §1, §2

Series [7] relates to SW620 colon cancer cell line. The series is described as follows: tumor cell proliferation test, SW620. The class given is cell-based. As to conditions: Homo sapiens, SW-620, CHP 400 μg/ml alone, read-out: effect of CHP alone (% inhibition of proliferation, minus sign). On the procedure:
as §1, §2, §4

For series [8], the system named is HT29 colon cancer cell line. The series can be described thus: tumor cell proliferation test (EZ4U tetrazolium), HT29. The class given is cell-based. The following applies: Homo sapiens, HT-29, 96 h, 4 days, read-out: inhibition of cellular proliferation. Here is the method: as §1, §2
A short description of series [9]: repeated oral administration to rats over 28 days, LC/MS of serum and urine. The class given is in vivo. As to conditions: repeated oral administration over 28 days. On the procedure: cis-4-Hydroxy-L-proline was repeatedly administered orally to rats over a period of 28 days. cis-4-Hydroxy-L-proline was analyzed in serum and urine samples using the LC/MS technique.

Series [10] relates to BT20 breast cancer cell line. The series can be described thus: tumor cell proliferation test (EZ4U tetrazolium), BT20. Type of series: cell-based. As to conditions: Homo sapiens, BT-20, 96 h, 4 days, read-out: inhibition of cellular proliferation. Here is the method:
as §1, §2

[11] abbreviates: COLO 205, 96 h, read-out: inhibition of cellular proliferation.
Where [12] appears, read: MIA PaCa-2, 96 h, read-out: inhibition of cellular proliferation.
Setting [13] is: BXPC-3, 96 h, read-out: inhibition of cellular proliferation.

Compound `CC(C)COC(=O)C1CC(O)CN1` [Substance A2, cis-hydroxy-L-proline isobutyl ester] yielded a melting point of 139 °C. Moreover, in [1] (COLO 205, substances dissolved in water, read-out: IC50 Colo205), the IC50 was found to be 18 mg/L. Further, the IC50 in series [2] (BXPC-3, substances dissolved in water, read-out: IC50 BxPC3) is 15 mg/L (≈ 80.1 µM).

As to `OC(c1ccccc1)(c1ccccc1)[C@@H]1CCCN1` [Substance 231.02, (S)-(−)-α,α-diphenyl-2-pyrrolidinemethanol], the IC50 in series [3] stood at 190 mg/L; in series [1] (COLO 205), 45 mg/L; in [4], 50 mg/L (≈ 197 µM); in the series with Pana -1 pancreas cancer it was 55 mg/L (≈ 217 µM); in [2] (BXPC-3), 50 mg/L (≈ 197 µM).

Take `OC(c1ccccc1)(c1ccccc1)[C@H]1CCCN1` [Substance 231.01, (R)-(+)-α,α-diphenyl-2-pyrrolidinemethanol]: the IC50 was found to be 130 mg/L in series [3]; 45 mg/L in [1] (COLO 205); 50 mg/L (≈ 197 µM) in [4]; 80 mg/L (≈ 316 µM) in the series with Pana -1 pancreas cancer; 60 mg/L (≈ 237 µM) in [2] (BXPC-3).

In the case of `O=C(O)[C@@H]1C[C@H](O)CN1` [CHP, cis-4-hydroxy-L-proline, reference compound], the inhibition at 400 µg/mL in [5] turned out to be 40 ± 10.1%; in series [6] (MDA-MB435, 400 μg/ml) it was 39.2%; in [7], 14%; in [3] (read-out: effect of CHP alone (% inhibition of proliferation, minus sign)), 17.4%; in series [8] (HT29, 400 μg/ml), 15.7%; in series [1] (setting [11]) it was 78.2%. Further, the inhibition at 400 µg/mL in series [1] (COLO 205, read-out: effect of CHP alone (% inhibition of proliferation, minus sign)) turned out to be 46%; in series [4] (setting [12]) it was 51.3%; in series [2] (setting [13]), 44.5%; in series [10] (BT20, 400 μg/ml) it was 10.6%. The inhibition at 200 µg/mL in [6] (MDA-MB435, 200 μg/ml) was 19.9%; in series [8] (HT29, 200 μg/ml) it was 1.7%; in [1] (setting [11]), 60%; in [4] (setting [12]) it was 34.5%; in series [2] (setting [13]), 27.8%; in series [10] (BT20, 200 μg/ml) it was 6.5%. Moreover, the “level of cis-4-hydroxy-L-proline in serum or urine” value in [9] is given as “rapidly dropped”. In addition, the “isomers and metabolites in the investigated samples (biotransformation)” value in series [9] (serum and urine) was “detection of isomers and metabolites”. For the same compound, the IC50 stood at 90 mg/L in series [1] (COLO 205, read-out: IC50 Colo205) and 400 mg/L (≈ 3050 µM) in [2] (BXPC-3, read-out: IC50 BxPC3).
